Patent US20120004233A1, “TRICYCLIC COMPOUNDS AS ANTAGONISTS OF PROSTAGLANDIN D2 RECEPTORS” (AMIRA PHARMACEUTICALS, INC, priority 2009, published 2012)
Read-outs that look alike come from different tables or passages of the source.

How the values were obtained:
[1] = biological target: T1, human DP2 receptor (Homo sapiens, UniProt Q9Y5Y4); test: DP2/CRTH2 radioligand binding assay using [3H]PGD2; settings: membranes of HEK293 cells expressing recombinant human DP2
T1 construct: expressed in transfected cells
T1 sequence (Q9Y5Y4 1-395): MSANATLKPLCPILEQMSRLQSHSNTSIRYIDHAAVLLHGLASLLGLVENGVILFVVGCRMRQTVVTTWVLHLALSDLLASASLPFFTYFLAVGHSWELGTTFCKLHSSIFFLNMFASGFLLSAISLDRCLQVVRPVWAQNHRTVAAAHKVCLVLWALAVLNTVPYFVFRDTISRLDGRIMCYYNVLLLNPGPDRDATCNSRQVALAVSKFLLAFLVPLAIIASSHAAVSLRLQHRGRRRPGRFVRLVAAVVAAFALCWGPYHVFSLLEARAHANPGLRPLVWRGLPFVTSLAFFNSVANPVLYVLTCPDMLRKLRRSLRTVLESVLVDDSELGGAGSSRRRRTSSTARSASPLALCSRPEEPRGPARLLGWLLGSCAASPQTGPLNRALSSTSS
Procedure: The ability of a compound to bind to the human DP2 receptor is assessed via a radioligand binding assay using [^3H]PGD2. HEK293 cells stably expressing recombinant human DP2 are resuspended in 10 mM Hepes, 7.4 containing 1 mM DTT, lysed and centrifuged at 75,000×g to pellet the membranes. The membranes are resuspended in 10 mM Hepes, 7.4 containing 1 mM DTT and 10% glycerol to approximately 5 mg protein/ml. Membranes (2-10 μg protein/well) are incubated in 96-well plates with 1 nM [^3H]PGD2 and test compound in Assay Buffer (50 mM Hepes, 10 mM MnCl2, 1 mM EDTA, plus or minus 0.2% human serum albumin, pH 7.4) for 60 minutes at room temperature. The reactions are terminated by rapid filtration through Whatman GF/C glass fibre filter plates. The filter plates were pre-soaked in 0.33% polythylenimine for 30 minutes at room temperature then washed in Wash Buffer (50 mM Hepes, 0.5 M NaCl pH 7.4) prior to harvesting. After harvesting, the filter plates are washed 3 times with 1 ml cold Wash Buffer then dried. Scintillant is then added to the plates and the radioactivity retained on the filters is determined on a Packard TopCount (Perkin Elmer). Specific binding is determined as total radioactive binding minus non-specific binding in the presence of 10 μM PGD2. IC50s were determined using GraphPad prism analysis of drug titration curves.

[2] = biological target: T2, human DP1 receptor (Homo sapiens, UniProt Q13258); test: DP1 radioligand membrane binding assay using [3H]BWA868C; settings: human platelet membranes; read-out: hDP1
T2 construct: tissue Biological Specialty Corporation; host or cells: human platelets, membrane preparation
T2 sequence (Q13258 1-359): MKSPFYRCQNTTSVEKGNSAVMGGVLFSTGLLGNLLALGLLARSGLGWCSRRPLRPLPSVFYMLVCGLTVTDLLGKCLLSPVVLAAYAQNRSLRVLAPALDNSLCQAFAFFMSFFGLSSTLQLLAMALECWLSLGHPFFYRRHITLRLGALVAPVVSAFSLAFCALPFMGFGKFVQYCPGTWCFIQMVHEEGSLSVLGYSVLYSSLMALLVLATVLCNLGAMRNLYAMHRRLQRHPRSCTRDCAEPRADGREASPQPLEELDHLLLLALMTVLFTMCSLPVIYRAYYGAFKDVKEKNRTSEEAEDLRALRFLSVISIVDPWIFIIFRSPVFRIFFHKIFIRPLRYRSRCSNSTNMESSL
Procedure: The ability of a compound to bind to the human DP1 receptor is evaluated via a radioligand membrane binding assay using the DP1 selective synthetic ligand [^3H]BWA868C. Packed human platelets (Biological Specialty Corporation), are resuspended in 6 volumes of Hepes/HBSS buffer (10 mM Hepes, 1 mM DTT in Hanks Balanced Salt Solution (HBSS)), lysed and centrifuged at 75,000×g to pellet the membranes. Membranes are resuspended in Hepes/HBSS buffer to approximately 12 mg protein/ml. Membranes (20 μg protein/well) are incubated in 96-well plates with 2 nM [^3H]BWA868C and test compound in Assay Buffer (50 mM Hepes, 10 mM MnCl2, 1 mM EDTA, plus or minus 0.2% human serum albumin, pH 7.4) for 60 minutes at room temperature. The reactions are terminated by rapid filtration through Whatman GF/C glass fibre filter plates. The filter plates are pre-soaked in 0.33% polethylenimine for 30 minutes at room temperature then washed in Wash Buffer (50 mM Hepes, 0.5 M NaCl pH 7.4) prior to harvesting. […] Scintillant is then added to the plates and the radioactivity retained on the filters is determined on a Packard TopCount (Perkin Elmer). Specific binding is determined as total radioactive binding minus non-specific binding in the presence of 10 μM BW A868C. IC50 values are determined using GraphPad prism analysis of drug titration curves.

[3] = plus 0.2% human serum albumin, read-out: hDP2 μM (+HSA)
[4] = without human serum albumin, read-out: hDP2

| IC50 [1, 3] [nM] | IC50 [1, 4] [nM] | IC50 [2] [nM] | SMILES |
| --- | --- | --- | --- |
| < 300 | < 300 | > 1000 | CN(C1CCc2c(c3ccccn3c2CC(=O)O)C1)S(=O)(=O)c1ccc(F)cc1 (stereo not drawn) [Compound 2-1, {9-[(4-Fluoro-benzenesulfonyl)-methyl-amino]-7,8,9,10-tetrahydro-pyrido[2,1-a]isoindol-6-yl}-acetic acid] |
| < 300 | < 300 | > 1000 | CN(C1CCc2c(CC(=O)O)c3ccccn3c2C1)S(=O)(=O)c1ccc(F)cc1 (stereo not drawn) [Compound 1-1, {3-[(4-Fluoro-benzenesulfonyl)-methyl-amino]-1,2,3,4-tetrahydro-pyrido[1,2-a]indol-10-yl}-acetic acid] |
